Counter-ions that a name gives are not always drawn.
Assays:
[1] = tested on: dopamine D2 receptor; assay: [3H]-spiperidone binding, dopamine D2 receptor (D2 Spiper); conditions: ratio of D2 Spiper IC50 to D2 Quin. IC50 (LowAg/HighAg)
Experimental: High affinity for the dopamine D2 receptor was established by the standard experimental test procedure of Fields, et al., Brain Res., 136, 5789 (1977) and Yamamura et al., ed., Neurotransmitter Receptor Binding, Chapter 9, page 171, Raven Press, N.Y. (1978) wherein homogenized limbic brain tissue is incubated with [^3H]-spiperidone at various concentrations of test compound, filtered washed, and shaken with Hydrofluor scintillation cocktail (National Diagnostics) and counted in a Packard 460 CD scintillation counter.

[2] = biological target: T1, dopamine autoreceptor (Rattus norvegicus, UniProt P61169); assay: [3H]-quinpirole binding, dopamine autoreceptor affinity (D2 Quin.); conditions: homogenized rat striatal brain tissue
T1 construct: homogenized rat striatal brain tissue; from tissue; host or cells: rat striatal brain tissue homogenate
T1 sequence (P61169 whole entry): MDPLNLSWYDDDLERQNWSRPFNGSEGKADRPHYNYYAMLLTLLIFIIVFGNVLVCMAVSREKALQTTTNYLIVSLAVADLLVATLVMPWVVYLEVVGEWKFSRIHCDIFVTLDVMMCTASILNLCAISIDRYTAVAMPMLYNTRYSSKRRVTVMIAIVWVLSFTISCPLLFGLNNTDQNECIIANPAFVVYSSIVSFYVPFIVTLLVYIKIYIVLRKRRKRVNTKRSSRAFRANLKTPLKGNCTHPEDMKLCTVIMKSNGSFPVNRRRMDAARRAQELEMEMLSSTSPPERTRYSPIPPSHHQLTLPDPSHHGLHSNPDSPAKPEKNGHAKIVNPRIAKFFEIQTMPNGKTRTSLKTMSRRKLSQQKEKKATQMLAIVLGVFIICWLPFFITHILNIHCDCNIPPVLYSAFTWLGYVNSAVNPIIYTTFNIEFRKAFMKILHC
Experimental: Affinity for the dopamine autoreceptor was established by a modification of the standard experimental test procedure of Seemen and Schaus, European Journal of Pharmacology 203: 105-109, 1991, wherein homogenized rat striatal brain tissue is incubated with [^3H]-quinpirole (Quin.) at various concentrations of test compound, filtered, washed and counted in a Betaplate scintillation counter.

| melting point | Ratio [1] | IC50 [2] | Structure (SMILES) |
| --- | --- | --- | --- |
| 244 °C |  |  | FC(F)(F)c1nc2ccc3c(c2[nH]1)OC(CNCc1ccccc1)CC3 (stereo not drawn) (as salt: oxalate) [Example 1, Benzyl-(2-trifluoromethyl-1,6,7,8-tetrahydro-9-oxa-1,3-diaza-cyclopenta[a]naphthalen-8-ylmethyl)-amine] |
|  | 75 | 11.5 nM | FC(F)(F)c1nc2ccc3c(c2[nH]1)OC(CNCc1ccccc1)CC3 (stereo not drawn) [Example 1, Benzyl-(2-trifluoromethyl-1,6,7,8-tetrahydro-9-oxa-1,3-diaza-cyclopenta[a]naphthalen-8-ylmethyl)-amine] |

— patent US6541502B1, “2-(aminomethyl)-tetrahydro-9-oxa-1,3-diaza-cyclopenta[a]-naphthalenyl derivatives with antipsychotic activity” (Wyeth, priority 2001, dated 2003)
